Measured values published in patent US9725449B2, “Tricyclic compounds as anticancer agents” (BRISTOL-MYERS SQUIBB COMPANY, priority 2015, dated 2017).

Each molecule was assayed against BRD4 (Homo sapiens, UniProt O60885) (assay: Time resolved fluorescence resonance energy transfer (TR-FRET) binding assay, bromodomain BRD4). Details: one of the FRET assays described; read-out: FRET BRD4 IC50.
For COc1nccc2c3ncc(-c4c(C)nnn4C)cc3n(C(c3ccc(F)cc3F)C3CCOCC3)c12 (racemic) [Example 25, 8-[(2,4-Difluorophenyl)(oxan-4-yl)methyl]-5-(dimethyl-1H-1,2,3-triazol-5-yl)-10-methoxy-3,8,11-triazatricyclo[7.4.0.0^2,^7]trideca-1(13),2(7),3,5,9,11-hexaene], the IC50 was < 10 nM. In the case of Cc1nnn(C)c1-c1cnc2c3ccc(Cl)nc3n([C@@H](c3ccccc3)C3CCOCC3)c2c1 [Example 15, 11-Chloro-5-(dimethyl-1H-1,2,3-triazol-5-yl)-8-[(R)-oxan-4-yl(phenyl)methyl]-3,8,10-triazatricyclo[7.4.0.0^2,^7]trideca-1(9),2(7),3,5,10,12-hexaene], the IC50 is reported as < 1500 nM. In the case of [2H]C([2H])([2H])c1nnn(C)c1-c1cnc2c3c(OC)ncc(S(C)(=O)=O)c3n(C(c3c(F)cc(F)cc3F)C3CCOCC3)c2c1 (single isomer, unassigned) [Example 84, 10-Methanesulfonyl-13-methoxy-5-[4-(^2H3)methyl-1-methyl-1H-1,2,3-triazol-5-yl]-8-[oxan-4-yl(2,4,6-trifluorophenyl)methyl]-3,8,12-triazatricyclo[7.4.0.0^2,^7]trideca-1(13),2(7),3,5,9,11-hexaene], the IC50 is reported as < 1500 nM. With CC(=O)c1cc2c(cn1)c1ncc(-c3c(C)nnn3C)cc1n2[C@H](c1ccc(F)cc1)C1CCOCC1 [Example 337] the IC50 was < 10 nM. For [2H]C([2H])([2H])c1nnn(C)c1-c1cnc2c3cnc(-c4c(C([2H])([2H])[2H])nnn4C)cc3n([C@H](c3ccccc3)C3CCOCC3)c2c1 [Example 168, 5,11-Bis[4-(^2H3)methyl-1-methyl-1H-1,2,3-triazol-5-yl]-8-[(S)-oxan-4-yl(phenyl)methyl]-3,8,12-triazatricyclo[7.4.0.0^2,^7]trideca-1(9),2(7),3,5,10,12-hexaene], the IC50 was < 1 nM. For [2H]C([2H])([2H])c1nnn(C)c1-c1cnc2c3c(OCC)ncc(S(C)(=O)=O)c3n(C(c3ncccc3F)C3CCC(F)(F)CC3)c2c1 (stereo not shown) [Example 74, 8-[(4,4-Difluorocyclohexyl)(3-fluoropyridin-2-yl)methyl]-13-ethoxy-10-methanesulfonyl-5-[4-(^2H3)methyl-1-methyl-1H-1,2,3-triazol-5-yl]-3,8,12-triazatricyclo[7.4.0.0^2,^7]trideca-1(13),2(7),3,5,9,11-hexaene], the IC50 was < 10 nM. Cc1nnn(C)c1-c1cnc2c3ccc([S+](C)[O-])nc3n([C@H](c3ccccc3)C3CCOCC3)c2c1 (stereo partly drawn) [Example 200, 5-(Dimethyl-1H-1,2,3-triazol-5-yl)-11-methanesulfinyl-8-[(S)-oxan-4-yl(phenyl)methyl]-3,8,10-triazatricyclo[7.4.0.0^2,^7]trideca-1(9),2(7),3,5,10,12-hexaene] was tested, and the IC50 was < 10 nM. [2H]C([2H])([2H])c1nnn(C)c1-c1cnc2c3c(OC)cncc3n([C@H](c3ccccc3)C3CCOCC3)c2c1 [Example 300, 13-Methoxy-5-[4-(^2H3)methyl-1-methyl-1H-1,2,3-triazol-5-yl]-8-[(S)-oxan-4-yl(phenyl)methyl]-3,8,11-triazatricyclo[7.4.0.0^2,^7]trideca-1(9),2(7),3,5,10,12-hexaene] was tested, and the IC50 was < 1 nM. For [2H]C([2H])([2H])c1nnn(C)c1-c1cnc2c3cc(C(=O)OC)cnc3n([C@H](c3ccccc3)C3CCOCC3)c2c1 [Example 348, Methyl 5-[4-(^2H3)methyl-1-methyl-1H-1,2,3-triazol-5-yl]-8-[(S)-oxan-4-yl(phenyl)methyl]-3,8,10-triazatricyclo[7.4.0.0^2,^7]trideca-1(13),2(7),3,5,9,11-hexaene-12-carboxylate], the IC50 was < 10 nM. In the case of [2H]C([2H])([2H])c1nnn(C)c1-c1cnc2c3ccc(N4CC(C)S(=O)(=O)C(C)C4)nc3n([C@H](c3ccccc3)C3CCOCC3)c2c1 (stereo partly drawn) [Example 193, 2,6-Dimethyl-4-{5-[4-(^2H3)methyl-1-methyl-1H-1,2,3-triazol-5-yl]-8-[(S)-oxan-4-yl(phenyl)methyl]-3,8,10-triazatricyclo[7.4.0.0^2,^7]trideca-1(9),2(7),3,5,10,12-hexaen-11-yl}-1λ^6,4-thiomorpholine-1,1-dione], the IC50 is reported as < 1 nM. With [2H]C([2H])([2H])c1nnn(C)c1-c1cnc2c3c(OC)ncc(C(C)(C)O)c3n(C(c3ccccc3)C3CCC(F)(F)CC3)c2c1 (single isomer, unassigned) [Example 281, 2-{8-[(4,4-Difluorocyclohexyl)(phenyl)methyl]-13-methoxy-5-[4-(^2H3)methyl-1-methyl-1H-1,2,3-triazol-5-yl]-3,8,12-triazatricyclo[7.4.0.0^2,^7]trideca-1(9),2,4,6,10,12-hexaen-10-yl}propan-2-ol] the IC50 was < 10 nM. [2H]C([2H])([2H])c1nnn(C)c1-c1cnc2c3ccc(C4=CCS(=O)(=O)CC4)nc3n([C@H](c3ccccc3)C3CCOCC3)c2c1 [Example 204, 4-{5-[4-(^2H3)Methyl-1-methyl-1H-1,2,3-triazol-5-yl]-8-[(S)-oxan-4-yl(phenyl)methyl]-3,8,10-triazatricyclo[7.4.0.0^2,^7]trideca-1(9),2(7),3,5,10,12-hexaen-11-yl}-3,6-dihydro-2H-1λ^6-thiopyran-1,1-dione] was tested, and the IC50 was < 10 nM. In the case of COc1nc(C(C)(C)O)cc2c1c1ncc(-c3c(C)nnn3C)cc1n2[C@@H](c1ncccc1F)C1CCOCC1 [Example 311, 2-{8-[(R)-(3-Fluoropyridin-2-yl)(oxan-4-yl)methyl]-13-methoxy-5-[4-(^2H3)methyl-1-methyl-1H-1,2,3-triazol-5-yl]-3,8,12-triazatricyclo[7.4.0.0^2,^7]trideca-1(9),2(7),3,5,10,12-hexaen-11-yl}propan-2-ol], the IC50 is reported as < 10 nM. With [2H]C([2H])([2H])c1nnn(C)c1-c1cnc2c3cnc(S(C)(=O)=O)cc3n([C@H](c3ccccc3F)C3CCOCC3)c2c1 [Example 245, 8-[(S)-(2-Fluorophenyl)(oxan-4-yl)methyl]-11-methanesulfonyl-5-[4-(^2H3)methyl-1-methyl-1H-1,2,3-triazol-5-yl]-3,8,12-triazatricyclo[7.4.0.0^2,^7]trideca-1(13),2(7),3,5,9,11-hexaene] the IC50 was < 10 nM. With [2H]C([2H])([2H])c1nnn(C)c1-c1cnc2c3cnc(S(C)(=O)=O)cc3n([C@H](c3ccccc3)C3CCOCC3)c2c1 [Example 201, 11-Methanesulfonyl-5-[4-(^2H3)methyl-1-methyl-1H-1,2,3-triazol-5-yl]-8-[(S)-oxan-4-yl(phenyl)methyl]-3,8,12-triazatricyclo[7.4.0.0^2,^7]trideca-1(9),2(7),3,5,10,12-hexaene] the IC50 was < 10 nM. With Cc1nnn(C)c1-c1cnc2c3c(NCC4CC4)ncc(Cl)c3n([C@H](c3ccccc3)C3CCOCC3)c2c1 [Example 44, 10-Chloro-N-(cyclopropylmethyl)-5-(dimethyl-1H-1,2,3-triazol-5-yl)-8-[(S)-oxan-4-yl(phenyl)methyl]-3,8,12-triazatricyclo[7.4.0.0^2,^7]trideca-1(13),2(7),3,5,9,11-hexaen-13-amine] the IC50 was < 10 nM. With COc1nnn(C)c1-c1cnc2c3ccc(Cl)nc3n([C@H](c3ccccc3)C3CCOCC3)c2c1 [Example 167, 11-Chloro-5-(4-methoxy-1-methyl-1H-1,2,3-triazol-5-yl)-8-[(S)-oxan-4-yl(phenyl)methyl]-3,8,10-triazatricyclo[7.4.0.0^2,^7]trideca-1(9),2(7),3,5,10,12-hexaene] the IC50 was < 1500 nM. With Cc1nnn(C)c1-c1cnc2c3cnc(C(C)(C)O)cc3n([C@H](c3ncccc3F)C3CCOCC3)c2c1 [Example 339] the IC50 was < 10 nM. With [2H]C([2H])([2H])c1nnn(C)c1-c1cnc2c3ccc(-c4c(C([2H])([2H])[2H])nnn4C)nc3n(C(c3ncccc3F)C3CCOCC3)c2c1 (stereo not shown) [Example 247, 8-[(3-Fluoropyridin-2-yl)(oxan-4-yl)methyl]-5,11-bis[4-(^2H3)methyl-1-methyl-1H-1,2,3-triazol-5-yl]-3,8,10-triazatricyclo[7.4.0.0^2,^7]trideca-1(13),2(7),3,5,9,11-hexaene] the IC50 was < 1 nM. In the case of [2H]C([2H])([2H])c1nnn(C)c1-c1cnc2c3c(OC)ncc(CO)c3n([C@H](c3ccccc3)C3CCOCC3)c2c1 [Example 139, {13-methoxy-5-[4-(^2H3)methyl-1-methyl-1H-1,2,3-triazol-5-yl]-8-[(S)-oxan-4-yl(phenyl)methyl]-3,8,12-triazatricyclo[7.4.0.0^2,^7]trideca-1(9),2,4,6,10,12-hexaen-10-yl}methanol], the IC50 is reported as < 10 nM. With Cc1nnn(C)c1-c1cnc2c3ccc(N4CC(C)S(=O)(=O)C(C)C4)nc3n([C@H](c3ccccc3)C3CCOCC3)c2c1 (single isomer, unassigned) [Example 190] the IC50 was < 1 nM. COc1ncc(C(=O)N2CC(F)C2)c2c1c1ncc(-c3c(C)nnn3C)cc1n2[C@H](c1ccccc1)C1CCOCC1 [Example 137, 5-(dimethyl-1H-1,2,3-triazol-5-yl)-10-(3-fluoroazetidine-1-carbonyl)-13-methoxy-8-[(S)-oxan-4-yl(phenyl)methyl]-3,8,12-triazatricyclo[7.4.0.0^2,^7]trideca-1(9),2,4,6,10,12-hexaene] was tested, and the IC50 was < 10 nM. For Cc1nnn(C)c1-c1cnc2c3cnc(Cl)cc3n(C(c3ncccc3F)C3CCOCC3)c2c1 (single isomer, unassigned) [Example 318], the IC50 was < 10 nM. For COc1nnn(C)c1-c1cnc2c3ccc(-c4c(OC)nnn4C)nc3n([C@H](c3ccccc3F)C3CCOCC3)c2c1 [Example 253, 8-[(S)-(2-Fluorophenyl)(oxan-4-yl)methyl]-5,11-bis(4-methoxy-1-methyl-1H-1,2,3-triazol-5-yl)-3,8,10-triazatricyclo[7.4.0.0^2,^7]trideca-1(13),2(7),3,5,9,11-hexaene], the IC50 was < 10 nM. For [2H]C([2H])([2H])c1nnn(C)c1-c1cnc2c3c(OC)ncc(S(C)(=O)=O)c3n([C@@H](c3ccccc3)C3CCC(F)(F)CC3)c2c1 [Example 82, 8-[(R)-(4,4-Difluorocyclohexyl)(phenyl)methyl]-10-methanesulfonyl-13-methoxy-5-[4-(^2H3)methyl-1-methyl-1H-1,2,3-triazol-5-yl]-3,8,12-triazatricyclo[7.4.0.0^2,^7]trideca-1(13),2(7),3,5,9,11-hexaene], the IC50 was < 1500 nM.
